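96-well plates; 48 h exposure; 5 concentrations. Endpoints by linear interpolation between flanking doses. Not reached: highest tested concentration assigned. Here, GI50 denotes the concentration required for 50% inhibition of growth.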 Activity calls are given as the source filed them. No stated cut-off is given here; in the data, active = GI50 up to about 1.1 µM and inactive = higher.
What was measured:
Assay in all cases: NCI tumour cell line growth inhibition, 48 h
[1] = test system: ACHN
[2] = test system: CAKI-1
[3] = test system: COLO 205
[4] = test system: DU-145
[5] = test system: HCT-116
[6] = test system: Hs-578T
[7] = test system: IGROV-1
[8] = test system: MDA-MB-231
[9] = test system: MOLT-4
[10] = test system: NCI-H226
[11] = test system: NCI/ADR-RES
[12] = test system: OVCAR-3
[13] = test system: OVCAR-5
[14] = test system: OVCAR-8
[15] = test system: SF-295
[16] = test system: SF-539
[17] = test system: SNB-19
[18] = test system: T47D
[19] = test system: UO-31
[20] = test system: NCI-H460

Row | Structure (SMILES) | GI50 [1] | GI50 [2] | GI50 [3] | GI50 [4] | GI50 [5] | GI50 [6] | GI50 [7] | GI50 [8] | GI50 [9] | GI50 [10] | GI50 [11] | GI50 [12] | GI50 [13] | GI50 [14] | GI50 [15] | GI50 [16] | GI50 [17] | GI50 [18] | GI50 [19] | GI50 [20]
1 | CN1CN(c2ccccc2)C2(CCN(Cc3nc4ccccc4s3)CC2)C1=O | 19.6 µM (inactive) | 20.1 µM (inactive) | 18.1 µM (inactive) | 17.9 µM (inactive) | 14.8 µM (inactive) | 18.7 µM (inactive) | 15.7 µM (inactive) | 14.1 µM (inactive) | 15.1 µM (inactive) | 16.4 µM (inactive) | 15.5 µM (inactive) | 15.7 µM (inactive) | 17.7 µM (inactive) | 14.4 µM (inactive) | 17.9 µM (inactive) | 17.8 µM (inactive) | 15 µM (inactive) | 16.2 µM (inactive) | 14.6 µM (inactive) | –
2 | COc1ccc(C2C3=C(N=C4SC(C(C)=O)=C(C)N42)c2ccccc2CC3)cc1 (stereo not drawn) | > 100 µM (inactive) | – | > 100 µM (inactive) | > 100 µM (inactive) | 15 µM (inactive) | 69 µM (inactive) | 10.1 µM (inactive) | > 100 µM (inactive) | – | 18.7 µM (inactive) | > 10 µM (inactive) | > 100 µM (inactive) | > 100 µM (inactive) | > 100 µM (inactive) | > 100 µM (inactive) | > 100 µM (inactive) | > 100 µM (inactive) | 31.8 µM (inactive) | 91.6 µM (inactive) | –
3 | Cc1ccc2nc(-c3ccc(-c4nc5ccc(C)cc5o4)c(O)c3)oc2c1 | > 100 µM (inactive) | – | > 100 µM (inactive) | > 100 µM (inactive) | > 100 µM (inactive) | > 100 µM (inactive) | – | > 100 µM (inactive) | > 100 µM (inactive) | > 100 µM (inactive) | > 100 µM (inactive) | – | > 100 µM (inactive) | > 100 µM (inactive) | – | > 100 µM (inactive) | > 100 µM (inactive) | > 100 µM (inactive) | > 100 µM (inactive) | > 100 µM (inactive)
4 | C/C(=N\O)C1CC2C=C(C#N)C1N(Cc1ccccc1)C2 (stereo not drawn) | 93.8 µM (inactive) | > 100 µM (inactive) | > 100 µM (inactive) | > 100 µM (inactive) | > 100 µM (inactive) | > 100 µM (inactive) | – | > 100 µM (inactive) | > 100 µM (inactive) | > 100 µM (inactive) | > 100 µM (inactive) | > 100 µM (inactive) | > 100 µM (inactive) | 45.3 µM (inactive) | > 100 µM (inactive) | > 100 µM (inactive) | > 100 µM (inactive) | > 100 µM (inactive) | > 100 µM (inactive) | 74.5 µM (inactive)
5 | Cc1ccc(NC(=O)CCc2nnc3s/c(=C\C=C\c4ccccc4)c(=O)n23)cc1 | > 100 µM (inactive) | > 100 µM (inactive) | > 100 µM (inactive) | > 100 µM (inactive) | > 100 µM (inactive) | > 78 µM (inactive) | > 100 µM (inactive) | > 100 µM (inactive) | 30 µM (inactive) | > 100 µM (inactive) | 26.5 µM (inactive) | 44.9 µM (inactive) | > 100 µM (inactive) | 31.3 µM (inactive) | > 100 µM (inactive) | 55.3 µM (inactive) | > 79.6 µM (inactive) | > 31.6 µM (inactive) | > 100 µM (inactive) | > 83.6 µM (inactive)
6 | O=C(Oc1ccc(C(c2c(O)c3ccccc3oc2=O)c2c(O)c3ccccc3oc2=O)cc1)c1ccc(C(=O)c2ccccc2)cc1 | 19.3 µM (inactive) | 28 µM (inactive) | 29.2 µM (inactive) | 29.1 µM (inactive) | 34.2 µM (inactive) | 37.7 µM (inactive) | 21.4 µM (inactive) | 35.6 µM (inactive) | 20.7 µM (inactive) | 10.6 µM (inactive) | 17.3 µM (inactive) | 18.3 µM (inactive) | 19.4 µM (inactive) | 16.6 µM (inactive) | 22 µM (inactive) | 17.3 µM (inactive) | 17.4 µM (inactive) | 34.5 µM (inactive) | 17.8 µM (inactive) | 22.1 µM (inactive)
7 | CCOP(=O)(C/C=C/Cn1nc(Br)c(=O)[nH]c1=O)OCC | > 100 µM (inactive) | > 100 µM (inactive) | > 100 µM (inactive) | > 100 µM (inactive) | > 100 µM (inactive) | > 100 µM (inactive) | > 100 µM (inactive) | > 100 µM (inactive) | > 100 µM (inactive) | > 100 µM (inactive) | > 100 µM (inactive) | > 100 µM (inactive) | > 100 µM (inactive) | > 100 µM (inactive) | > 100 µM (inactive) | > 100 µM (inactive) | > 100 µM (inactive) | > 100 µM (inactive) | > 100 µM (inactive) | > 100 µM (inactive)
8 | N/C(=N\c1ccc(Cl)cc1)NS(=O)(=O)c1ccc(-c2ccccn2)s1 | 16.4 µM (inactive) | 2.07 µM (inactive) | 17.4 µM (inactive) | 17 µM (inactive) | 16.9 µM (inactive) | 24.8 µM (inactive) | 16.1 µM (inactive) | 14.2 µM (inactive) | 2.41 µM (inactive) | 17.3 µM (inactive) | 18.1 µM (inactive) | 22.8 µM (inactive) | 21.4 µM (inactive) | 19 µM (inactive) | 17.5 µM (inactive) | 14.9 µM (inactive) | 16.3 µM (inactive) | 12.8 µM (inactive) | 17.7 µM (inactive) | 17.7 µM (inactive)
9 | COc1ccc2c(c1)CCc1c-2[nH]c2ccc(OC)cc12 | > 100 µM (inactive) | > 100 µM (inactive) | > 100 µM (inactive) | > 100 µM (inactive) | > 100 µM (inactive) | > 100 µM (inactive) | > 100 µM (inactive) | > 100 µM (inactive) | > 100 µM (inactive) | 36.4 µM (inactive) | > 100 µM (inactive) | > 100 µM (inactive) | > 100 µM (inactive) | > 100 µM (inactive) | > 100 µM (inactive) | – | > 100 µM (inactive) | 20.8 µM (inactive) | > 100 µM (inactive) | > 100 µM (inactive)
10 | O=C(NCCc1ccccc1)[C@H]1CCCC[C@@H]1CCO | > 100 µM (inactive) | > 100 µM (inactive) | > 100 µM (inactive) | > 100 µM (inactive) | > 100 µM (inactive) | > 100 µM (inactive) | > 100 µM (inactive) | > 100 µM (inactive) | > 100 µM (inactive) | > 100 µM (inactive) | > 100 µM (inactive) | > 100 µM (inactive) | > 100 µM (inactive) | > 100 µM (inactive) | > 100 µM (inactive) | > 100 µM (inactive) | – | > 100 µM (inactive) | > 100 µM (inactive) | > 100 µM (inactive)
11 | c1ccc2c(c1)Nc1nc3nonc3nc1N2 | > 100 µM (inactive) | > 100 µM (inactive) | > 100 µM (inactive) | > 100 µM (inactive) | > 100 µM (inactive) | > 100 µM (inactive) | > 100 µM (inactive) | > 100 µM (inactive) | > 100 µM (inactive) | > 100 µM (inactive) | > 100 µM (inactive) | – | > 100 µM (inactive) | > 100 µM (inactive) | > 100 µM (inactive) | – | > 100 µM (inactive) | > 100 µM (inactive) | > 100 µM (inactive) | > 100 µM (inactive)
12 | CC1(C)C2CC3C4CC5(Nc6ccccc6C5N41)[C@]3(C)CC2=O (stereo partly drawn) | > 50 µM (inactive) | > 50 µM (inactive) | > 50 µM (inactive) | > 50 µM (inactive) | > 50 µM (inactive) | > 50 µM (inactive) | > 50 µM (inactive) | > 50 µM (inactive) | > 50 µM (inactive) | > 50 µM (inactive) | > 50 µM (inactive) | > 50 µM (inactive) | > 50 µM (inactive) | > 50 µM (inactive) | > 50 µM (inactive) | > 50 µM (inactive) | – | 9.82 µM (inactive) | > 50 µM (inactive) | > 50 µM (inactive)
13 | CC1(C)OC2C(O)CN3CCS[C@H]3C2O1 (stereo partly drawn) | > 100 µM (inactive) | > 100 µM (inactive) | > 100 µM (inactive) | > 100 µM (inactive) | > 100 µM (inactive) | > 100 µM (inactive) | > 100 µM (inactive) | > 100 µM (inactive) | > 100 µM (inactive) | > 100 µM (inactive) | > 100 µM (inactive) | > 100 µM (inactive) | > 100 µM (inactive) | > 100 µM (inactive) | > 100 µM (inactive) | – | > 100 µM (inactive) | > 100 µM (inactive) | > 100 µM (inactive) | > 100 µM (inactive)
14 | Cc1ccc2c(C(=O)c3c(C)n(CCN4CCOCC4)c4ccccc34)cccc2c1 | 28.6 µM (inactive) | 25.1 µM (inactive) | – | 27.5 µM (inactive) | 7.18 µM (inactive) | 4.14 µM (inactive) | 19.3 µM (inactive) | 17.3 µM (inactive) | 3.88 µM (inactive) | < 0.01 µM (active) | 12.4 µM (inactive) | 3.54 µM (inactive) | 23.2 µM (inactive) | 10.8 µM (inactive) | 7.45 µM (inactive) | 0.156 µM (active) | 33.9 µM (inactive) | 17.2 µM (inactive) | 23.2 µM (inactive) | 21.1 µM (inactive)
15 | CCCCSC1=N/C(=C\c2ccc(N(C)C)cc2)C(=O)N1 | 29.8 µM (inactive) | 35.6 µM (inactive) | 35.5 µM (inactive) | 60.1 µM (inactive) | 25 µM (inactive) | 25.2 µM (inactive) | 35.3 µM (inactive) | 24 µM (inactive) | 57.5 µM (inactive) | 18 µM (inactive) | 82.6 µM (inactive) | 27 µM (inactive) | 24.4 µM (inactive) | 54.1 µM (inactive) | 28.4 µM (inactive) | 24.5 µM (inactive) | 31.7 µM (inactive) | 18.7 µM (inactive) | – | 20.8 µM (inactive)
